Conditions: stretched and non-stretched groups; systems removed at 24 and 48 hours
Description: In one group of 12 hairless guinea pigs the skin of one flank was stretched manually bi-directionally ( ? and ? ) before application of a foam double adhesive ring having a thickness of 0.8 mm ( 1/32 inch) with a 2 cm^2 hole in the middle which would later contain the drug. The bi-directional stretching was estimated to achieve a skin tension of between 0.1 and 1 M Pa. The adhesive ring served to keep the skin under the drug compartment in the stretched configuration. Next, a 2 cm^2 stainless steel microprotrusion array having trapezoidal microprotrusions with microprotrusion lengths of 430 μm and a microprotrusion density of 241 microprotrusions/cm^2 was applied to the skin beneath the drug compartment using an approximately 2 kg/cm^2 normal manual pressure. The microprotrusion array was held for a few seconds and then removed.
A second group of 12 hairless guinea pigs were treated in the same way, except that the skin was not stretched. At 12, 24, and 48 hours after application four systems from each group were removed and residual drug was washed from the skin.

drug flux after 12 hours: no drug flux in either group
Structure (SMILES): NCCCC[C@H](N[C@@H](CCc1ccccc1)C(=O)O)C(=O)N1CCC[C@H]1C(=O)O [lisinopril]

Reference: US7087035B2 (priority 1999, dated 2006)
